In brackets after ≈: the same amount, converted by molar mass. Like-named read-outs stand apart in the source and are kept apart here. Blank lines part the entries; values can stand above or below the compound they belong to.
Assays:
[1] = system: Helicobacter pylori 11637 [幽门螺旋杆菌(11637)]; assay: MIC determination by two-fold (倍半) dilution on MH agar, single drugs and mixed drugs, H. pylori 11637; format: cell-based; details: for MIC: Helicobacter pylori
[2] = biological target: cytochrome P450 isoform CYP2D6 [细胞色素P450亚型CYP2D6] (Homo sapiens, UniProt P10635); details: in words; background; cited from earlier work
Chain of cytochrome P450 isoform CYP2D6 [细胞色素P450亚型CYP2D6] (P10635 whole entry, canonical isoform): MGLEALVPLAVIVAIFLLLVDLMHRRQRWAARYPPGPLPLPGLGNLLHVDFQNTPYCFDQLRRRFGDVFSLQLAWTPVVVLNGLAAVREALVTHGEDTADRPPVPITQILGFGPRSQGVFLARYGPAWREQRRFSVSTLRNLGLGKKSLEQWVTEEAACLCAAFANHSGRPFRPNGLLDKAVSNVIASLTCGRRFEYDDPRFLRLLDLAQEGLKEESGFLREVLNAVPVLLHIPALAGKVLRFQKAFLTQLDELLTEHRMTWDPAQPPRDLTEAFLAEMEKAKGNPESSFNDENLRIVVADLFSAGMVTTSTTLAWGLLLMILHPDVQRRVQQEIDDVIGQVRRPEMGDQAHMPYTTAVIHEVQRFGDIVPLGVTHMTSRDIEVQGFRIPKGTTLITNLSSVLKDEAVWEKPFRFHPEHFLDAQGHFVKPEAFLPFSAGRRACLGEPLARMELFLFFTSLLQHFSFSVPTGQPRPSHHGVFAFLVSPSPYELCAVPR

α receptor [α受体] = details: in words; background; cited from earlier work
BACE1 = BACE1 (Homo sapiens, UniProt P56817); details: in words; background; cited from earlier work
Chain of BACE1 (P56817 46-501, species assumed): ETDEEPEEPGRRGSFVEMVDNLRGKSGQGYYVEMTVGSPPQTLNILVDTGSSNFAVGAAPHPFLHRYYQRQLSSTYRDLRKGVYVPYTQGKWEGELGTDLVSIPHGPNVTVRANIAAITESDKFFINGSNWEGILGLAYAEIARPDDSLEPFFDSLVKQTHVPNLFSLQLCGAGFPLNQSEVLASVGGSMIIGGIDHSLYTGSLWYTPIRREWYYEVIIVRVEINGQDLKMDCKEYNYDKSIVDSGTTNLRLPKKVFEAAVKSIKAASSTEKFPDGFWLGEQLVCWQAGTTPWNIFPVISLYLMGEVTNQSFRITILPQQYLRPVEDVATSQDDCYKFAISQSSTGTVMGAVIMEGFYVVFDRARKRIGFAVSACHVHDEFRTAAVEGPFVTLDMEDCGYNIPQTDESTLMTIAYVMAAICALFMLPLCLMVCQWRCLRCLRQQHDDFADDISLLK

[3] = in words, background; cited from earlier work
aldose reductase [醛糖还原酶] = aldose reductase [醛糖还原酶] (Homo sapiens, UniProt P15121); details: in words; background; cited from earlier work
[4] = drug alone, H. pylori 11637, MH agar, 85%N2, 10%CO2, 5%O2, 48~72h, read-out: MIC

SMILES: COc1ccc2cc3[n+](cc2c1OC)CCc1cc2c(cc1-3)OCO2.[Cl-] [BBR, 小檗碱盐酸盐]
MIC ([1]; 72 h): 50 µg/mL
synergistic effect ([1]; in words, combined with omeprazole (奥美拉唑), from table 1): 有一定的协同作用

SMILES: COc1cc2c(cc1OC)-c1cc3ccc4c(c3c[n+]1CC2)OCO4 [e-BBR, 表小檗碱]
inhibitory activity on CYP2D6 [2]: 较强的抑制活性
α receptor blocking effect (α receptor [α受体]): α受体阻断作用
BACE1 inhibitory activity (BACE1): 非竞争性BACE1抑制活性
in vitro hypoglycaemic activity [3]: 体外降血糖活性
inhibition of aldose reductase activity (aldose reductase [醛糖还原酶]): 抑制醛糖还原酶活性
MIC [1, 4]: 100 µg/mL
anti-Hp activity ([1]; in words, compared with berberine (小檗碱), from table 1): 低于小檗碱

SMILES: O=C1OCCN1/N=C/c1ccc([N+](=O)[O-])o1 [呋, 呋喃唑酮]
MIC [1, 4]: 1.56 µg/mL (≈ 6.93 µM)

SMILES: C[C@H]1COc2c(N3CCN(C)CC3)c(F)cc3c(=O)c(C(=O)O)cn1c23 [左, 左氧氟沙星]
MIC [1, 4]: 3.1 µg/mL (≈ 8.58 µM)

Results, then the compound that gave them:

MIC [1, 4]: 0.1 µg/mL (≈ 0.134 µM)
SMILES: CC[C@H]1OC(=O)[C@H](C)[C@@H](O[C@H]2C[C@@](C)(OC)[C@@H](O)[C@H](C)O2)[C@H](C)[C@@H](O[C@@H]2O[C@H](C)C[C@H](N(C)C)[C@H]2O)[C@](C)(OC)C[C@@H](C)C(=O)[C@H](C)[C@@H](O)[C@]1(C)O [克, 克拉霉素]

MIC [1, 4]: 100 µg/mL (≈ 289 µM)
SMILES: COc1ccc2[nH]c([S+]([O-])Cc3ncc(C)c(OC)c3C)nc2c1 (stereo not drawn) [奥, 奥美拉唑]

MIC [1, 4]: 1.56 µg/mL (≈ 9.11 µM)
SMILES: Cc1ncc([N+](=O)[O-])n1CCO [甲, 甲硝唑]

MIC [1, 4]: 0.05 µg/mL (≈ 0.137 µM)
SMILES: CC1(C)S[C@@H]2[C@H](NC(=O)[C@H](N)c3ccc(O)cc3)C(=O)N2[C@H]1C(=O)O [阿, 阿莫西林]
